Laboratory results as given in patent publication US12171224B2, “Choline salt and ammonium-free adjuvants for water conditioning and agricultural formulations” (SPECIALTY OPERATIONS FRANCE, priority 2015, dated 2024).

How the values were obtained:
Conditions in all cases: 1000 ppm water, after 21 days
[1] = test system: Common barnyardgrass; test: Greenhouse weed control study, common barnyardgrass
Experimental: (§1) A greenhouse study was conducted to evaluate efficacy benefits of several candidates.
(§2) Procedure: Product application was made using a DeVries spray booth calibrated to 10 gpa, 40 psi with flat-fan AIXR11002 nozzle. Test plants were placed in a certain zone (Zone 3) of research greenhouse on a wire-mesh raised bench and arranged in a randomized complete block design. […] Environmental conditions averaged high temperature 87° F. to low temperature of 75° F. during trial dates. Average humidity levels ranged from 40% to 90%. Test plants received natural lighting for duration of trial. Test plants were soil watered every twenty-four (24) hours as needed.
(§3) Weeds were evaluated for percent control at 3, 7, 14, and 21-days following application.
(§4) Rating scale used; 0 indicating no control/injury up to 100 indicating complete control of weed species as compared to the untreated check.

[2] = test system: Yellow foxtail; test: Greenhouse weed control study, yellow foxtail
Experimental: as §1, §2, §3, §4

[3] = test system: Velvet leaf; test: Greenhouse weed control study, velvetleaf
Experimental: as §1, §2, §3, §4

[4] = test system: Ivyleaf morning glory; test: Greenhouse weed control study, ivyleaf morning glory
Experimental: as §1, §2, §3, §4

[5] = test system: Weeds; test: Greenhouse weed control study, average over the four weeds
Experimental: as §1, §2, §3, §4

[6] = (55% soln) 0.18%, use rate 0.18 % w/w
[7] = (55% soln) 0.45%, use rate 0.45 % w/w
[8] = (80% liquid) 1%, use rate 1 % w/w

C[N+](C)(C)CCO.O=C([O-])CC(O)(CC(=O)O)C(=O)O [Choline Dihydrogen Citrate]
Common barnyardgrass percent control ([1]; 0.4%, use rate 0.4 % w/w): 83.3%
Yellow foxtail percent control ([2]; 0.4%, use rate 0.4 % w/w): 40%
Velvet leaf percent control ([3]; 0.4%, use rate 0.4 % w/w): 20%
Ivyleaf morning glory percent control ([4]; 0.4%, use rate 0.4 % w/w): 26.7%
Average percent control ([5]; 0.4%, use rate 0.4 % w/w): 42.5%

O=C(O)CC(O)(CC(=O)O)C(=O)O [Citric acid]
Common barnyardgrass percent control [1, 6]: 83.3%
Common barnyardgrass percent control [1, 7]: 60%
Yellow foxtail percent control [2, 6]: 36.7%
Yellow foxtail percent control [2, 7]: 50%
Velvet leaf percent control [3, 6]: 15%
Velvet leaf percent control [3, 7]: 15%
Ivyleaf morning glory percent control [4, 6]: 16.7%
Ivyleaf morning glory percent control [4, 7]: 20%
Average percent control [5, 6]: 37.925%
Average percent control [5, 7]: 36.25%

Choline bicarbonate
Common barnyardgrass percent control [1, 8]: 30%
Yellow foxtail percent control [2, 8]: 83.3%
Velvet leaf percent control [3, 8]: 15%
Ivyleaf morning glory percent control [4, 8]: 10%
Average percent control [5, 8]: 34.575%

N.N.O=S(=O)(O)O [Ammonium Sulfate]
Common barnyardgrass percent control ([1]; 1%, use rate 2.5 % w/w): 80%
Common barnyardgrass percent control ([1]; 2%, use rate 5 % w/w): 90%
Yellow foxtail percent control ([2]; 1%, use rate 2.5 % w/w): 40%
Yellow foxtail percent control ([2]; 2%, use rate 5 % w/w): 40%
Velvet leaf percent control ([3]; 1%, use rate 2.5 % w/w): 18.3%
Velvet leaf percent control ([3]; 2%, use rate 5 % w/w): 18.3%
Ivyleaf morning glory percent control ([4]; 1%, use rate 2.5 % w/w): 20%
Ivyleaf morning glory percent control ([4]; 2%, use rate 5 % w/w): 18.3%
Average percent control ([5]; 1%, use rate 2.5 % w/w): 39.575%
Average percent control ([5]; 2%, use rate 5 % w/w): 41.65%
